Laboratory results published in US6706762B1, “Methods for the use of inhibitors of co-repressors for the treatment of neoplastic diseases” (The Salk Institute for Biological Studies, priority 1997, dated 2004).

Tests used:
[1] = tested on: PML-RARα expressing HL-60 cells; settings: Rousselot et al. (1994); cited from earlier work
GAL-PLZF-RARα = GAL-PLZF-RARα activation of UAS reporter, transient transfection in CV1 cells; assay type: cell-based; settings: for reporter activation in combination with ATRA: TSA 150 nM or NaB 5 mM plus ATRA; for reporter activation in combination with ATRA / relief of repression by GAL-PLZF-RARα: 16 hours; for relief of repression by GAL-PLZF-RARα: TSA 150 nM or NaB 5 mM
Experimental: (§1) GAL4-DBD fusions of RARα or PLZF-RARα were transfected into CV1 cells and examination of their RA-activation on UAS reporters. CV1 cells were transfected using DOTAP transfection reagents (Boehringer Mannheim). Luciferase activity of each sample was normalized against internal control β-galactosidase activity (Nagy et al. (1997) Cell 89:373-380). Each transfection was carried out in triplicate and repeated at least three times.

NB4 cells [2] = test: Nitroblue Tetrazolium (NBT) reduction differentiation assay in NB4 cells; assay type: cell-based, human; settings: three days
Experimental: (§2) This prediction was tested utilizing the NB4 cell line established from a patient with t(15;17) APL. NB4, NB4-R4 (Shao et al. (1997) Blood 89:4282-4289), HL-60 and HL-60R (Robertson et al. (1992) Blood 80:1885-1889) cells were cultured in RPMI with 10% FBS. […] Differentiation assays with RA and/or TSA were carried out as previously described (Nagy et al. (1997) Cell 89:373-380). NBT assay has been described (Nagy et al. (1995) Mole. Cell. Biol. 15:3540-3551).

[3] = tested on: SMRT / DNA-bound PML-RARα; test: Gel mobility shift assay, GST-SMRT-IDII with PML-RARα homodimers on DR5 elements; assay type: binding; settings: compared with RARα/RXRα heterodimers
Text: The protein-DNA complexes were then resolved on a 4.5% native polyacrylamide gel and visualized by autoradiography.

RARα / SMRT = biological target: T1, RARα / SMRT (Homo sapiens, UniProt P10276); test: GST-SMRT (amino acids 1,073-1,330) affinity matrix, radiolabelled RARα; assay type: binding; settings: ATRA
T1 construct: made in house; host or cells: in vitro translated receptor; GST-SMRT from E. coli
T1 sequence (P10276 1-462): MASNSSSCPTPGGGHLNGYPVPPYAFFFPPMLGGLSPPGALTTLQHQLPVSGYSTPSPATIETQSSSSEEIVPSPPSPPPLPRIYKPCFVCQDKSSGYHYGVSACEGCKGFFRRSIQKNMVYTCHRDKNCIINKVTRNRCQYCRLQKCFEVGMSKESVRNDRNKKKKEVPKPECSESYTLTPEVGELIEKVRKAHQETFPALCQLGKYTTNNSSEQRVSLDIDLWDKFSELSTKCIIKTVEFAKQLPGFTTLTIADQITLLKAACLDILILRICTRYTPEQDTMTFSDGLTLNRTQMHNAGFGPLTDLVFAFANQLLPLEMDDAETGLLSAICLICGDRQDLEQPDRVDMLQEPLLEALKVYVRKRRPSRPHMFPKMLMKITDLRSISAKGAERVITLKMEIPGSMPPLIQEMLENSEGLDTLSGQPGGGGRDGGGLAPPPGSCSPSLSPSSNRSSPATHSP

PML-RARα/SMRT complex = test: GST-SMRT (amino acids 1,073-1,330) affinity matrix, radiolabelled PML-RARα; assay type: binding; settings: ATRA
[4] = tested on: PLZF-RARα / GST-SMRT-IDII; test: GST-SMRT-IDII affinity matrix, binding of radiolabelled PLZF-RARα; settings: presence of 5 μM ATRA
Experimental: (§3) Recombinant proteins were obtained as follows and in vitro protein interaction assays were carried out as follows. GST-PLZF and GST-SMRT fusion proteins were produced from E. Coli DH5a or BL-21 cells and purified by glutathione-Sepharose 4B affinity chromatography. Bound proteins were eluted with 15 mM glutathione. Purified proteins were then reloaded on glutathione-Sepharose 4B beads and used as affinity matrices. Protein interaction assays were performed in G buffer (20 mM Tris, 7.9, 150 mM KCl, 1 mM EDTA, 4 mM MgCl2, 0.26 NP-40, 10% Glycerol) at 4° C. for 60 min with gentle rocking. The beads were washed five times with G buffer and bounded proteins were eluted in SDS sample buffer, separated by SDS-PAGE and visualized by autoradiography.

[5] = tested on: SMRT associated with PLZF-RARα; test: Immunoprecipitation of HA-PLZF-RARα from CV1 cell extracts, immunoblot for SMRT; assay type: cell-based; settings: ATRA (5 μM), 4° C. overnight
Experimental: (§4) For in vitro immunoprecipitation, in vitro translated proteins were incubated together with 10 μg/μl anti-HA antibody in G buffer at 4° C. for 60 min. Immunocomplexes were isolated by incubation with protein A-agarose, washed four times with G buffer, analyzed by SDS-PAGE and visualized by autoradiography. For in vivo immunoprecipitation, 2×10^7 CV1 cells were transfected with 10 μg of appropriate plasmids and harvested in ice-cold PBS, 24 hours after transfection. Cells were lysed by hypotonic shock and the nuclear pellet was resuspended in IP buffer (PBS, 10 mM NaF, 25 mM β-glycerolphosphate, 0.1% NP-40, 0.5 mM PMSF plus protease inhibitors) and disrupted by mild sonication.
(§5) Immunocomplexes were resolved by SDS-PAGE and analyzed by immunoblotting.

RARα / GST-SMRT-IDII = biological target: T2, RARα / GST-SMRT-IDII (Homo sapiens, UniProt P10276); test: GST-SMRT-IDII affinity matrix, binding of radiolabelled RARα; settings: presence of 5 μM ATRA
T2 construct: made in house; host or cells: 35S-labelled receptor (in vitro translation); GST-SMRT from E. coli DH5a or BL-21
T2 sequence (P10276 1-462): T1 sequence (P10276 1-462)
Experimental: as §3

[6] = tested on: PLZF-RARα / GST-SMRT-PID2; test: GST-SMRT-PID2 affinity matrix, binding of radiolabelled PLZF-RARα; settings: presence or absence of 5 μM ATRA
Experimental: as §3

[7] = biological target: T3, SMRT associated with RARα (Homo sapiens, UniProt P10276); test: Immunoprecipitation of HA-RARα from CV1 cell extracts, immunoblot for SMRT; assay type: cell-based; settings: ATRA (5 μM), 4° C. overnight
T3 construct: HA-RARα (amino acids 61-462); expressed in transfected cells; host or cells: CV1 cells
T3 sequence (P10276 61-462): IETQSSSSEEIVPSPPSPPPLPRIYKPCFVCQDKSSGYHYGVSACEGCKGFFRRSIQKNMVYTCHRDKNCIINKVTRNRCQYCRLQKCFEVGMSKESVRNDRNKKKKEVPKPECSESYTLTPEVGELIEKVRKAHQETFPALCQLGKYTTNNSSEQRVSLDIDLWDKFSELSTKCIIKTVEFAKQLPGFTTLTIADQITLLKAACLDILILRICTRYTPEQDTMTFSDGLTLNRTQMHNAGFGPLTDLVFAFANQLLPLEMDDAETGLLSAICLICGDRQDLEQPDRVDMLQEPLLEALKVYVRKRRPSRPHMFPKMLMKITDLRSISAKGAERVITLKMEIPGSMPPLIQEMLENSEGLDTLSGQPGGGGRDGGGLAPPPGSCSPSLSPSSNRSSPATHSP
Experimental: as §4, §5

[8] = tested on: myeloid leukemia (HL-60) cells; test: Differentiation of HL-60 cells, CD14 and CD11b expression by flow cytometry; assay type: cell-based, human; settings: 72 hours
Experimental: If HDAC is a critical component of receptor function then addition of a deacetylase inhibitor, such as Trichostatin A (TSA) (Taunton et al., Science 272:408-411 (1996)) would be expected to relieve transcriptional repression, resulting in a promoter that is likely to be more sensitive to the addition of hormone. This prediction was tested by studying the effect of TSA on the differentiation of myeloid leukemia (HL-60) cells (Collins, Blood 70:1233-1244 (1987)) following a high dose ( 100 nM) 9-cis RA treatment. A hallmark of this process is the appearance of cell surface differentiation markers CD14 and CD11b (Brackman et al., Leukemia Research 19:57-64 (1995)). HL-60 cells cultured in RPMI 10% FBS were plated at a density of 2×10^5/ml in RPMI 2% FBS treated with 9-cis RA (Sigma) and/or Trichostatin A (TSA) (Waco Pure Chemical Industries) for 72 hours and then incubated with R-phycoerythrin (RPE) conjugated anti-human C3bi receptor (CD11b) (DAKO) or RPE-conjugated monoclonal mouse anti-human CD 14 (DAKO) antibodies for 60 minutes on ice. Cells were washed twice with PBS 0.5% BSA and analyzed on a FACScan flow cytometer (Becton Dickinson). The expression of cell surface antigens (CD11b and CD14) were monitored.

NB4 cells [9] = test: CD18 expression in NB4 cells by flow cytometry; assay type: cell-based, human; settings: TSA plus 9-cis RA, three days
Experimental: as §2
For flow cytometry analysis of CD18 expression, the cells were incubated with a FITC-conjugated anti-CD18 antibody (DAKO) in a dilution of 1:500 in PBS (0.5% BSA) followed by extensive washing before analyzing on a FACSCAN flow cytometer (Becton Dickinson). Although histone deacetylase inhibitors are known to have pleiotropic effects on global gene expression, the fact that CD18 is a direct retinoid target gene (Agura et al. (1992) Blood 79:602-609) supports the notion that histone deacetylases are integral components of PML-RARα mediated differentiation. […] This would explain why the inhibition of SMRT-mediated repression by TSA increases the retinoid sensitivity of NB4 cells.

NB4-R4 cells = test: NBT reduction differentiation assay in retinoid-resistant NB4-R4 cells; assay type: cell-based, human; settings: three days
Experimental: as §2

PLZF-RARα = test: TK-βRARE×2-Luc reporter, transcriptional inhibition by PLZF-RARα in CV1 cells; assay type: cell-based; settings: NaB 5 mM, 100 nM ATRA
Experimental: as §1
(§6) It was then sought to determine whether similar effects can be seen on native RA-response elements. As shown previously, exogenous expression of PLZF-RARα or PML-RARα inhibits RA-activation mediated by endogenous RARs on βRARE reporters (FIG. 6(C); de Thé et al. (1991) Cell 66:675-684; Kastner et al. (1992) EMBO J. 11:629-642; Chen et al. (1994) Proc. Natl Acad. Sci. USA 91:1178-1182; Licht et al. (1996) Oncogene 12:323-336; Rousselot et al. (1994) Oncogene 9:545-551).

PML-RARα = test: TK-βRARE×2-Luc reporter, transcriptional inhibition by PML-RARα in CV1 cells; assay type: cell-based; settings: NaB 5 mM, 100 nM ATRA
Experimental: as §1, §6

SMILES: CC1=C(/C=C/C(C)=C/C=C/C(C)=C/C(=O)O)C(C)(C)CCC1 [ATRA, all-trans retinoic acid]
- ATRA concentration up to which cells are resistant [1]: up to 10^−7 M
- response of GAL-PLZF-RARα to ATRA (reporter activation) (GAL-PLZF-RARα; ATRA alone, 36 hours, compared to GAL-RARα): poorly responded
- percentage of NBT-positive cells (NB4 cells [2]; 1 mM ATRA alone, parental NB4 cells): 23%
- ATRA concentration required to dissociate SMRT from DNA-bound PML-RARα versus RAR [3]: substantially higher concentrations
- dissociation of SMRT from RARα (RARα / SMRT): effectively dissociated
- effect on PML-RARα/SMRT complex (PML-RARα/SMRT complex): only weakly affected
- binding of PLZF-RARα to GST-SMRT-IDII [4]: significantly reduced
- amount of SMRT associated with PLZF-RARα [5]: largely unaffected
- binding of RARα to GST-SMRT-IDII (RARα / GST-SMRT-IDII): significantly reduced
- binding of PLZF-RARα to GST-SMRT-PID2 [6]: ligand-insensitive
- amount of SMRT which associates with RARα [7]: greatly reduced

SMILES: CC1=C(/C=C/C(C)=C\C=C\C(C)=C\C(=O)O)C(C)(C)CCC1 [9-cis RA, 9-cis retinoic acid]
- CD14 expression ([8]; suboptimal dose (10 nM) of 9-cis RA alone): modest stimulation

SMILES: CC(/C=C/C(=O)NO)=C\[C@@H](C)C(=O)c1ccc(N(C)C)cc1 [TSA, Trichostatin A]
- RA-induced expression of early differentiation marker CD18 (NB4 cells [9]): strong stimulatory effect
- reporter activation in combination with ATRA (GAL-PLZF-RARα): synergized with ATRA
- relief of repression by GAL-PLZF-RARα (GAL-PLZF-RARα): relieved repression
- differentiation effect of ATRA (NBT-positive cells) (NB4 cells [2]; TSA 50 nM plus ATRA at all concentrations tested): dramatically enhanced
- differentiation (NBT-positive cells) (NB4 cells [2]; TSA (50 nM) alone): no effect
- percentage of NBT-positive cells (NB4-R4 cells; ATRA and 200 nM TSA): 18%
- hormone-induced differentiation (NBT-positive cells) (NB4-R4 cells; TSA plus ATRA): partially restored hormone-induced differentiation
- CD14 expression ([8]; 100 nM TSA alone): minimal effect
- CD14 expression ([8]; TSA plus 10 nM 9-cis RA, compared with 100 nM 9-cis RA): dramatic enhancement
- CD14 expression ([8]; TSA plus high dose (100 nM) 9-cis RA): enhanced
- CD11b expression ([8]; combination of TSA and 9-cis RA): cooperative at both high and low doses
- CD11b expression ([8]; low doses of TSA alone): partially activated gene expression

SMILES: CCCC(=O)[O-].[Na+] [NaB, sodium butyrate]
- reporter activation in combination with ATRA (GAL-PLZF-RARα): synergized with ATRA
- relief of repression by GAL-PLZF-RARα (GAL-PLZF-RARα): relieved repression
- RA activation of βRARE reporter in the presence of PLZF-RARα (PLZF-RARα): restore nearly full RA activation
- relief of transcriptional inhibition by PML-RARα on βRARE reporter (PML-RARα): partially, relieves transcriptional inhibition
